Measured values published in US20090042905A1, “TRIAZOLE DERIVATIVES AS LIGANDS OF G-PROTEIN COUPLED RECEPTORS” (AETERNA ZENTARIS GmbH, priority 2007, published 2009).

System: C57BL/6 male mice fed a high-fat diet
Experiment: Diet-induced obesity (DIO) in mice, subchronic s.c. treatment
Assay type: in vivo, mouse
Conditions: for Fat mass / Food efficiency / Lean mass / Σ Fat depots / Body weight gain / Cumulative food intake / Glucose / Insulin: 2 weeks; for Body weight gain / Cumulative food intake: difference day 35 vs day 21; for Glucose / Insulin: plasma
Method: The effectiveness of selected compounds of the invention, i.e. their subchronic effects, on the energy balance of mice rendered obese by a high-fat diet was investigated.
Adult C57BL/6 male mice were fed ad libitum with either chow or a high-fat diet (60% of the calorie content from fat) for 5 weeks.
C57BL/6 mice fed with a high-fat diet readily develop obesity and represent a widely used model for investigating human obesity.
One-third of the dose was injected in the morning and two-third in the evening.
Body weight and food intake were monitored every day during the experiment. Body composition (lean and fat mass) was assessed using dual energy x-ray absorptiometry (DEXA) on day 0, 13 and 27. Blood was also sampled at sacrifice for the determination of plasma glucose, insulin and triglycerides.

CC(C)(N)C(=O)N[C@H](Cc1c[nH]c2ccccc12)c1nnc(CCCc2c[nH]c3ccccc23)n1Cc1ccccc1 [Compound 9, (R)-N-(1-(5-(3-(1H-indol-3-yl)propyl)-4-benzyl-4H-1,2,4-triazol-3-yl)-2-(1H-indol-3-yl)ethyl)-2-amino-2-methylpropanamide]
Fat mass (1.5 mg/kg per day s.c.): 7.9 g
Food efficiency (1.5 mg/kg per day s.c.): 1.30 mg/kJ
Lean mass (1.5 mg/kg per day s.c.): 20.2 g
Σ Fat depots (1.5 mg/kg per day s.c.): 1137 mg
Body weight gain (1.5 mg/kg per day s.c.): 1.03 g
Cumulative food intake (1.5 mg/kg per day s.c.): 793 kJ
size of the fat depots (in words) (6 mg/kg per day and 24 mg/kg per day): reduced
body weight gain (in words) (6 mg/kg per day and 24 mg/kg per day, two weeks of treatment): significantly decreased
Fat mass (6.0 mg/kg per day s.c.): 5.8 g
Food efficiency (6.0 mg/kg per day s.c.): 0.25 mg/kJ
Lean mass (6.0 mg/kg per day s.c.): 21.2 g
Σ Fat depots (6.0 mg/kg per day s.c.): 791 mg
Body weight gain (6.0 mg/kg per day s.c.): 0.20 g
Cumulative food intake (6.0 mg/kg per day s.c.): 809 kJ
Fat mass (24 mg/kg per day s.c.): 5.7 g
Food efficiency (24 mg/kg per day s.c.): -0.68 mg/kJ
Lean mass (24 mg/kg per day s.c.): 20.5 g
Σ Fat depots (24 mg/kg per day s.c.): 792 mg
Body weight gain (24 mg/kg per day s.c.): -0.54 g
Cumulative food intake (24 mg/kg per day s.c.): 790 kJ
Glucose (1.5 mg/kg per day s.c.): 14.9 mmol/L
Insulin (1.5 mg/kg per day s.c.): 63.8 pmol/L
Glucose (6.0 mg/kg per day s.c.): 15.6 mmol/L
Insulin (6.0 mg/kg per day s.c.): 57.4 pmol/L
Glucose (24 mg/kg per day s.c.): 13.1 mmol/L
Insulin (24 mg/kg per day s.c.): 52.0 pmol/L
